# Source: patent US20020061869A1, “Free insulin testosterone test” (priority 1998, published 2002)
# What was measured:
# [1] = test system: insulin dependent diabetes mellitus patient; assay: Example 1: intramuscular aqueous testosterone in an insulin dependent diabetic person with gangrene; format: in vivo, human
# Description: C. W. was a person with a fifteen-year history of insulin dependent diabetes mellitus. They were hospitalized with gangrene of the middle finger of their right hand and was scheduled for amputation. They had already had bilateral femoral-popliteal bypass surgery for vascular insufficiency of the lower extremities. Due to anorexia, they were given an intramuscular injection of 200 mg of aqueous testosterone. Their fasting glucose fell from 212 to 159.
# [2] = test system: patient with uncontrolled diabetes; assay: Example 4: testosterone subcutaneous pellets in a person with uncontrolled diabetes; format: in vivo, human; details: 250 to 900 mg subcutaneous pellets every six weeks over six months, before: 100 units of Humulin
# Description: G. S. was a person with uncontrolled diabetes for ten years. Seen intermittently for ulceration of the feet, they presented with a serum glucose of 550 while on 100 units of Humulin. They refused admission to the hospital.
# Over the course of six months, […] received 250 to 900 mg of […] testosterone subcutaneous pellets every six (6) weeks. […] insulin requirements were reduced 35 units while […] serum glucose remained stable at 140 to 180 mg/dl; see FIG. 3.
# [3] = test system: men with cluster headaches; assay: Testosterone supplementation in men with cluster headaches and low Testosterone Ratio Test; format: in vivo, human; details: two men; supplementation to therapeutic levels at the normal male maximum
# [4] = target: T1, sex hormone-binding globulin (Homo sapiens, UniProt P04278); details: readily reversible at 37° C.; cited from earlier work
# T1 sequence (P04278 30-402): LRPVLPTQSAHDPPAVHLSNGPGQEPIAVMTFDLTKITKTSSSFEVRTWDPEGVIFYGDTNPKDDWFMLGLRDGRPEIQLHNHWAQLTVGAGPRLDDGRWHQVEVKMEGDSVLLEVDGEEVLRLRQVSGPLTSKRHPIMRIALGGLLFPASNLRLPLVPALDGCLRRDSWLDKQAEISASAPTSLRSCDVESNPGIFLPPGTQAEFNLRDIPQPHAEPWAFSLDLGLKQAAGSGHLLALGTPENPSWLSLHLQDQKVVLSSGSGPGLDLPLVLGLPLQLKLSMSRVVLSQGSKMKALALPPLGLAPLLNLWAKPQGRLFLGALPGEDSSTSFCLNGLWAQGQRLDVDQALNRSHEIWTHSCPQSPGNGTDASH
# [5] = test system: insulin dependent diabetic patient; assay: Example 2: intramuscular depo-testosterone enanthate in an insulin dependent diabetic person; format: in vivo, human; details: 150 mg intramuscularly three times weekly
# Description: A. W. was a person who has been an insulin dependent diabetic for fifteen years. […] They were scheduled for amputation. They used 24 units of Humulin insulin in the morning and 16 units at night. Their fasting blood glucose was 334. Treated with 150 mg of depo-testosterone enanthate intramuscularly, three times weekly, they became euglycemic on less than 12 units daily; see FIG. 1. However, due to the infected heel ulcer, amputation proceeded.
# [6] = test system: diabetic patient on oral hypoglycemic agents; assay: Example 3: intramuscular depo-testosterone in a person on oral hypoglycemic agents; format: in vivo, human; details: 250 mg intramuscularly three times weekly for four weeks
# Description: J. G. was a person on oral hypoglycemic agents for ten years. Present dosage was 20 mg/day, Micronase 7 (Upjohn). They presented with ulcerations in four areas of their left foot, no dorsal pedis pulsation, and was scheduled for amputation but refused. Fasting glucose was 244.
# [7] = test system: subject (tissue glucose stores); assay: Example 5: intramuscular testosterone enanthate, Hemoglobin A1C; format: in vivo, human; details: 9.9 in May
# Description: Testosterone enanthate 300 mg was given to a subject intramuscularly twice weekly for four weeks, then continued with therapy of 300 mg every two weeks.
# rats = test system: rats; set-up: dose or concentration left out as unconfirmed; details: female rats, high dose, cited from earlier work
# [8] = cited from earlier work
# menopausal women = details: cited from earlier work
molecule,measurement,setting,value
C[C@]12CC[C@H]3[C@@H](CCC4=CC(=O)CC[C@@]43C)[C@@H]1CC[C@@H]2O [testosterone],healing of gangrenous finger,[1]; amputation made unnecessary,healed completely in two months
same,fasting glucose,"[1]; person, after intramuscular injection of 200 mg, fell from 212",159
same,serum glucose outcome,[1]; repeated dosing every other day for one week,normalization of their serum glucose
same,insulin requirement (Humulin daily),"[1]; repeated dosing every other day for one week, decrease from 44 units",24 units
same,insulin requirements reduced,[2],35 units
same,cluster headaches/migraines,[3],complete absence of cluster headaches/migraines for two years
same,binding affinity K,[4],approximately 10^9 M^−1
CCCCCCC(=O)O[C@H]1CC[C@H]2[C@@H]3CCC4=CC(=O)CC[C@]4(C)[C@H]3CC[C@]12C [Testosterone enanthate],insulin requirement daily,[5]; before: 24 units morning and 16 units at night,less than 12 units
same,glycemic status,"[5]; person, fasting blood glucose before 334",euglycemic
same,use of oral hypoglycemic agents,[6]; before: Micronase 20 mg/day,discontinuing their oral agents
same,glycemic status,"[6]; person, fasting glucose before 244",euglycemic
same,Hemoglobin A1C,"[7]; August, 1998, 300 mg intramuscularly twice weekly for four weeks then every two weeks",7.2
same,Hemoglobin A1C,"[7]; October, 1998, 300 mg intramuscularly twice weekly for four weeks then every two weeks",5.5
Cc1c(C)c2c(c(C)c1O)CCC(C)(COc1ccc(CC3SC(=O)NC3=O)cc1)O2 (stereo not drawn) [troglitazone],sarcomatous tumors,"rats; daily for 104 weeks, dose associated with excessive mortality",statistically significant increase in sarcomatous tumors
same,exposure relative to estimated human exposure of parent compound,rats,47 fold
same,side effects,[8]; as reported to date,"abnormal liver function tests, jaundice, drop in white blood cell count and drop in hemoglobin which may persist for two years"
same,lowering of effective blood level of co-administered drugs,"[8]; oral contraceptives, terfenadine, and choleslyramine",up to 30%
estrogen,reduction of cardiovascular disease mortality,menopausal women,fifty percent
